Source: patent US9770423B2, “Modulation sAPP, sAAPα and BDNF levels in individuals diagnosed with FXS and ASD” (Indiana University Research and Technology Corp., priority 2012, dated 2017)
“And” between values parts separate entries of the source, which are not always exact repeats. Identical values can stand only once.

Experiments:
BDNF = assay: plasma BDNF by ELISA in the FXS open-label trial; assay type: in vivo, human
Protocol: Blood samples for BDNF were drawn at Screen and at Week 10 of the study. BDNF analysis was done blind to patient assignment (pre- or post-treatment). Approximately 4 ml of blood was collected in EDTA containing tubes. Within 30 minutes of collection, the blood was centrifuged at 1000 g at 2-8° C. for 15 minutes. Plasma was collected and an additional centrifugation of the collected plasma at 1000 g at 2-8° C. for 10 minutes was done to completely remove platelets from the samples. All plasma samples were stored at −80° C. BDNF assays were done at the same time with all samples in triplicate. To determine plasma BDNF, a sensitive ELISA based method was used using human BDNF ELISA kit from R&D systems (Minneapolis, Minn.; USA) that is validated for detection of BDNF present in human plasma (Grassi-Oliveira et al., 2008). The amount (pg/ml) of BDNF present in the plasma samples was determined from the pg value obtained in the standard curve using a known amount of pure human BDNF, which was run at the same time with subjects' samples.
All data were recorded in IBM SPSS Statistics Professional for statistical analysis. Potential differences in pre- and post-treatment mean values of all outcome measures employed were calculated using paired t-tests. […] Effect sizes were calculated by taking the mean change from baseline to endpoint divided by the standard deviation at baseline.

[1] = tested on: youth with Fragile X Syndrome (FXS); assay: 10-week open-label trial of acamprosate in youth with FXS: behavioral outcome measures; assay type: in vivo, human; conditions: for Aberrant Behavior Checklist-Social Avoidance (ABC-SA), end point mean ± SD: baseline 3.3 ± 2.6, p 0.01; for Clinical Global Impressions-Severity (CGI-S), end point mean ± SD: baseline 4.25 ± 0.45; for Clinical Global Impressions-Severity (CGI-S), end point mean ± SD / ADHD Rating Scale 4th Edition (ADHD-RS), end point mean ± SD: p <0.0001; for Aberrant Behavior Checklist-Social Withdrawal (ABC-SW), end point mean ± SD: baseline 8.8 ± 5.8, p 0.04 (Table 2), baseline 7.33 ± 5.2, p 0.014 (Table 5); for Aberrant Behavior Checklist-Hyperactivity (ABC-H), end point mean ± SD: baseline 16.8 ± 9.1, p 0.009; for ADHD Rating Scale 4th Edition (ADHD-RS), end point mean ± SD: baseline 23.6 ± 10.6; for Vineland Adaptive Behavior Scale (VABS) Communication Domain, end point mean ± SD: baseline 63.4 ± 10.1, p 0.03; for VABS Expressive Communication Subdomain, end point mean ± SD: baseline 69.8 ± 23.0, p 0.003; for Social Responsiveness Scale total score (SRS), end point mean ± SD: baseline 91.3 ± 27.4, p 0.005
Source text: The Institutional Review Board (IRB) at an academic medical center approved this study. Thirteen outpatient males and females aged 5 to 17 years with body weight 15 kg were recruited for this study. Written informed consent was obtained from each participant's legal guardian (parent for all children in this report), and subjects provided assent when able. Diagnosis of FXS was confirmed by Southern Blot and PCR results consistent with a greater than 200 CGG repeat expansion in the FMR1 gene with at least partial gene methylation. Subjects had to be free of other significant medical conditions. The concomitant use of psychotropic drugs that are not thought to impact glutamate neurotransmission were allowed so long as the patients experienced stable dosing at least 4 weeks prior to baseline. Subjects were required to have a mental age of greater than 18 months as determined by the Stanford-Binet 5th Edition. Additional inclusion criteria included a CGI-S(Guy 1976) score of at least 4 (“Moderately Ill”). Subjects with a Diagnostic and Statistical Manual of Mental Disorders, 4th Edition, Text Revision (DSM-IV-TR) diagnosis of a psychotic disorder, bipolar disorder, or substance use disorder were excluded from the study. Additionally, subjects with a positive urine pregnancy test, creatinine clearance of <30, active seizure disorder, or other significant medical condition were excluded.
A 10-week, prospective, open-label study design was chosen to gather pilot data for potential future larger-scale, double-blind, placebo-controlled studies in this population.
All subjects underwent a screening and baseline visit followed by follow-up visits every 2 weeks during the 10-week open-label trial period. At the end of weeks 1, 3, and 5 the investigators called the parent to assess drug tolerability and to make dose adjustments as indicated. All subjects received 333 mg/day of acamprosate during the first week of the study. The investigators then increased the dosage to a maximum of 1,998 mg/day (weight>50 kg) or 1,332 mg/day (weight<50 kg) over the first six weeks of the study, if optimal clinical response (CGI-I equal to 1 “very much improved”) had not occurred and intolerable adverse effects had not emerged. The dose maintenance phase lasted 4 weeks at the optimal dosage.
The CGI-S assessment was administered at screen and at baseline as part of the eligibility criteria described above. In this study, the rater scored the CGI-S in regard to severity of symptoms commonly noted in FXS including, but not limited to, inattention/hyperactivity, social impairment, communication impairment, repetitive behavior, irritability, and anxiety. The CGI-S is rated on a scale from 1 to 7 (1=normal, not ill at all; 2=borderline ill; 3=mildly ill; 4=moderately ill; 5=markedly ill; 6=severely ill; 7=among the most extremely ill patients with FXS). The Autism Diagnostic Observation Schedule (ADOS) (Lord, Rutter et al. 1989) was administered at baseline to characterize potential concomitant ASD diagnosis.
The primary outcome measure was the CGI-I. The CGI-I is a scale designed to assess global change from baseline. […] Treatment response was defined by a CGI-I score of 1 “very much improved” or 2 “much improved.” In this study, the CGI-I was utilized as a general global primary outcome measure given the uncertainty as to what specific symptoms/behaviors associated with FXS may be expected to improve or worsen with use of acamprosate. The CGI-I was administered at all visits after baseline.
Secondary outcome measures included all subscales of the ABC (Irritability, Social Withdrawal, Stereotypy, Hyperactivity, and Inappropriate Speech). The ABC is an informant-rated (primary caregiver) measure with confirmed reliability and validity with regard to factor structure, distribution of scores, and sensitivity to change in persons with developmental disability (Aman, Singh et al. 1985). […]

[2] = FXS, 10 weeks, listed as Acamprosate
[3] = baseline to endpoint, FXS, p=0.01
[4] = mean change from baseline to endpoint divided by SD at baseline, FXS

CC(=O)NCCCS(=O)(=O)O.[Ca] [acamprosate, Calcium Acetylhomotaurine]
change in plasma BDNF from screen to Week 10 (BDNF; 10 subjects with FXS): All subjects experienced an increase | mean subject plasma BDNF after treatment (BDNF; Week 10, 10 subjects with FXS, screen 790.4±1350.4 pg/mL, p=0.01): 1007.6 ± 1493.2 pg/mL | treatment responders (CGI-I score of 1 or 2) ([1]; 12 youth with FXS, 10 weeks, mean final dose 1054 mg/day): 75% | mean CGI-I at endpoint ([1]; 12 youth with FXS, scale 1-7): 1.9 | mean CGI-I values for the responders at week 10 ([1]; FXS trial, week 10): 1.92 | PPVT scores, change with treatment ([1]; FXS, 10 weeks): did not significantly change | SRS Social Awareness and Autistic Mannerisms subscales, change with treatment ([1]; FXS, 10 weeks): Improvement was not noted | other VABS domains, change with treatment ([1]; FXS, 10 weeks): No other changes with treatment were noted | other subscales of the ABC and the CY-BOCS-PDD, change during treatment ([1]; FXS, 10 weeks): did not change significantly | Aberrant Behavior Checklist-Social Avoidance (ABC-SA), end point mean ± SD ([1]; FXS, 10 weeks): 1.6 | Aberrant Behavior Checklist-Social Avoidance (ABC-SA), end point mean ± SD [1, 2]: 1.6 ± 2.7 | Clinical Global Impressions-Severity (CGI-S), end point mean ± SD ([1]; FXS, 10 weeks): 3.33 | Clinical Global Impressions-Severity (CGI-S), end point mean ± SD [1, 2]: 3.33 ± 0.5 and 3.33 ± 0.49 | Aberrant Behavior Checklist-Inappropriate Speech (ABC-IS), end point mean ± SD ([1]; FXS, 10 weeks, baseline 5.2 ± 3.5, p 0.61): 4.8 ± 3.4 | Aberrant Behavior Checklist-Stereotypy (ABC-S), end point mean ± SD ([1]; FXS, 10 weeks, baseline 6.8 ± 6.8, p 0.09): 6 ± 6.3 | Aberrant Behavior Checklist-Social Withdrawal (ABC-SW), end point mean ± SD ([1]; FXS, 10 weeks): 4.1 | Aberrant Behavior Checklist-Social Withdrawal (ABC-SW), end point mean ± SD [1, 2]: 4.1 ± 6.5 | Aberrant Behavior Checklist-Irritability (ABC-I), end point mean ± SD ([1]; FXS, 10 weeks, baseline 9.9 ± 7.8, p 0.11): 7.0 ± 8.9 | Children's Yale-Brown Obsessive Compulsive Scale Modified for PDD (CY-BOCS-PDD), end point mean ± SD ([1]; FXS, 10 weeks, baseline 11.1 ± 2.6, p 0.15): 9.8 ± 4.1 | Aberrant Behavior Checklist-Hyperactivity (ABC-H), end point mean ± SD ([1]; FXS, 10 weeks): 11.0 | Aberrant Behavior Checklist-Hyperactivity (ABC-H), end point mean ± SD [1, 2]: 11.0 ± 8.6 | ADHD Rating Scale 4th Edition (ADHD-RS), end point mean ± SD ([1]; FXS, 10 weeks): 16.7 | ADHD Rating Scale 4th Edition (ADHD-RS), end point mean ± SD [1, 2]: 16.7 ± 8 | Vineland Adaptive Behavior Scale (VABS) Communication Domain, end point mean ± SD ([1]; FXS, 10 weeks): 66.6 | Vineland Adaptive Behavior Scale (VABS) Communication Domain, end point mean ± SD [1, 2]: 66.6 ± 11.2 | VABS Expressive Communication Subdomain, end point mean ± SD ([1]; FXS, 10 weeks): 78.9 | VABS Expressive Communication Subdomain, end point mean ± SD [1, 2]: 78.9 ± 21.2 | Peabody Picture Vocabulary Test (PPVT), end point mean ± SD ([1]; FXS, 10 weeks, baseline 85.2 ± 32.0, p 0.53): 83.3 ± 32 | Social Responsiveness Scale total score (SRS), end point mean ± SD ([1]; FXS, 10 weeks): 76.4 | Social Responsiveness Scale total score (SRS), end point mean ± SD [1, 2]: 76.4 ± 26.8 and 76.42 ± 26.8 | decline of mean ABC-H score ([1]; baseline to endpoint, FXS): 35% | decline of mean ABC-SA score ([1]; baseline to endpoint, FXS): 51% | decline of mean ABC-SW score ([1]; baseline to endpoint, FXS): 53% | decline of mean ADHD-RS score ([1]; baseline to endpoint, FXS): 29% | decline of mean total SRS raw score ([1]; baseline to endpoint, FXS): 16% | improvement of mean VABS Communication Domain standard score ([1]; baseline to endpoint, FXS): 5% | improvement of mean VABS Expressive Communication score ([1]; baseline to endpoint, FXS): 13% | decline of SRS Social Motivation subscale ([1]; baseline to endpoint, FXS, p=0.003): 28% | decline of SRS Social Cognition subscale [1, 3]: 19% | decline of SRS Social Communication subscale [1, 3]: 14% | Effect Size, ABC-H [1, 4]: 0.64 | Effect Size, ABC-SA [1, 4]: 0.64 | Effect Size, ABC-SW [1, 4]: 0.81 | Effect Size, ADHD-RS [1, 4]: 0.65 | Effect Size, CGI-S [1, 4]: 2.0 | Effect Size, SRS total score [1, 4]: 0.54 | Effect Size, VABS Communication Domain [1, 4]: 0.3 | Effect Size, VABS Expressive Communication Subdomain [1, 4]: 0.4 | Effect Size, VABS Communication Domain ([1]; mean change from baseline to endpoint divided by SD at baseline, FXS, listed as Acamprosate): 0.32 | treatment responders, number of subjects ([1]; of 12 youth with FXS): 9
